Counter-ions that a name gives are not always drawn.
System: MTT (mouse pheochromocytoma)
Experiment: IC50 of cell viability (ATP content)
Settings: (24 or 48 h)
Procedure, shortened: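 Each well of a white 1536-well plate received 5 µl of MTT mouse pheochromocytoma cells at 200,000 cells/ml in DMEM containing 5% FBS and 1% horse serum. After overnight culture at 37°C, 5% CO2, cells were exposed for 24 or 48 hrs to 23 nl of library compound in DMSO, pinned at 8 final concentrations from 0.5 nM to 46 µM. CellTiter-Glo luminescence was read after 15 minutes, and IC50 was obtained from a four-parameter logistic fit of signals normalised to positive-control and DMSO wells.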

SMILES	IC50 of cell viability [µM]
O=C(O)Cc1cccc(-c2cc(CCCCCCc3ccc(O[C@H]4O[C@H](CO)[C@@H](O)[C@H](O)[C@@H]4O)c(-c4cccc(CC(=O)O)c4)c3)ccc2O[C@H]2O[C@H](CO)[C@@H](O)[C@H](O)[C@@H]2O)c1 [BIMOSIAMOSE DISODIUM]	> 46
O=C(O)[C@@H](O)[C@@H](O)[C@@H](O[C@@H]1O[C@@H](CO)[C@@H](O)[C@@H](O)[C@H]1O)[C@@H](O)CO [Lactobionic acid]	> 46
S=P(N1CC1)(N1CC1)N1CC1 [THIO-TEPA]	> 46
O=C(O)/C=C/C(=O)O [MALEIC ACID]	> 46
C[C@]12CCC(=O)C[C@@H]1CC[C@@H]1[C@@H]2CC[C@]2(C)[C@@H](O)CC[C@@H]12 [5alpha-Androstan-17beta-ol-3-one]	> 46
CCC(=O)O[C@@](Cc1ccccc1)(c1ccccc1)[C@@H](C)CN(C)C.O=[S+]([O-])(O)c1ccc2ccccc2c1 [Levopropoxyphene napsylate]	> 46
C\C1=C\C(=O)NC(=S)N1 [METHYLTHIOURACIL]	> 46
NCCO [Ethanolamine]	> 46
FC(F)OC(F)(F)C(F)Cl (stereo unspecified) [ENFLURANE]	> 46
CC1(O\C(=C/C1=O)C(O)=O)C2=CC=CC=C2 (stereo unspecified) [Acifran]	> 46
OCC1OC(OC2C(CO)OC(OC3C(CO)OC(O)C(O)C3O)C(O)C2O)C(O)C(O)C1O (stereo unspecified) [Maltotriose]	> 46
CCN(CC)CCOC(=O)c1cccnc1.O.O=C(O)CC(O)(CC(=O)O)C(=O)O [NICAMETATE CITRATE]	> 46
C1CC[N@]2C[C@@H]3C[C@@H](CN4CCCC[C@H]34)[C@H]2C1 [Sparteine (-)]	> 46
CC\12CCC(=O)\C=C1CCC3C2CCC4(C)C3CCC4(O)C#C (stereo unspecified) [ETHISTERONE]	> 46
[K+].C[C@@]12CCC(=O)\C=C1\C=C/[C@@H]3[C@@H]2CC[C@]4(C)[C@@H]3CC[C@]4(O)CCC([O-])=O [Canrenoic acid potassium salt]	> 46
CCOC(=O)/C=C(C)/C=C/CC(C)CCCC(C)C (stereo unspecified) [S-HYDROPRENE]	> 46
CN(N=O)C(=O)N[C@H]1[C@H](O)[C@H](O)[C@H](CO)O[C@@H]1O [Streptozotocin]	> 46
COP(=S)(OC)Oc1ccc([S+](=O)([O-])N(C)C)cc1 [FAMPHUR]	> 46
CC(=O)N1CC(O)CC1C(=O)O (stereo unspecified) [OXACEPROLUM]	> 46
CC(=O)O.CNC(=N)NCCC[C@H](N)C(=O)O [NG-Monomethyl-L-arginine acetate]	> 46
CCN1\C=C(\C(O)=O)C(=O)C2=C1C=C3OCOC3=C2 [OXOLINIC ACID]	> 46

SMILES	IC50 of cell viability [µM]
N=C(N)NC(=N)N1CCOCC1 [Moroxidine hydrochloride]	> 46
COc1ccc(OC)c(C[C@H](C)N)c1 [(+)-2,5-Dimethoxyamphetamine]	> 46
O=NN(CCCl)C(=O)NC1CCCCC1 [LOMUSTINE]	> 46
O=C([O-])c1cccc(/C=C2/C[C@@H]3[C@@H](/C=C/[C@@H](O)C4CCCCC4)[C@H](O)C[C@@H]3O2)c1 [Taprostene sodium salt]	> 46
OC[C@H]1O[C@@H]2O[C@H]3[C@H](O)[C@@H](O)[C@@H](O[C@H]4[C@H](O)[C@@H](O)[C@@H](O[C@H]5[C@H](O)[C@@H](O)[C@@H](O[C@H]6[C@H](O)[C@@H](O)[C@@H](O[C@H]7[C@H](O)[C@@H](O)[C@@H](O[C@H]8[C@H](O)[C@@H](O)[C@@H](O[C@H]1[C@H](O)[C@H]2O)O[C@@H]8CO)O[C@@H]7CO)O[C@@H]6CO)O[C@@H]5CO)O[C@@H]4CO)O[C@@H]3CO [beta-Cyclodextrin]	> 46
NCC(O)c1ccc(O)cc1 (racemic) [DL-OCTOPAMINE]	> 46
C[n+]1ccccc1/C=N\O [Pralidoxime chloride]	> 46
C1C\N=C(\CC2=CC=CC=C2)N1 [Tolazoline hydrochloride]	> 46
COc1ccccc1N1CCNCC1.Cl [1-(2-Methoxyphenyl)piperazine hydrochloride]	> 46
CCCCC [n-Pentane]	> 46
O=C(O)C(Cl)Cl [Dichloroacetic acid]	> 46
CCN(CCO)CCn1c(Cc2ccccc2)nc2c1c(=O)n(C)c(=O)n2C [Bamifylline Hydrochloride]	> 46
CCCCCCCCCCCCCCCC(=O)NCCO [Palmitoylethanolamide]	> 46
CCN(CC)C(C)C(=O)c1ccccc1 (stereo unspecified) [DIETHYLPROPION HYDROCHLORIDE]	> 46
CSc1ccc2c(c1)N(CCC1CCCCN1C)c1ccccc1S2 (stereo unspecified) [THIORIDAZINE]	> 46
CNC(C)CC1CCCCC1 (stereo unspecified) [Propylhexadrine]	> 46
CCNC(C)Cc1ccc2c(c1)OCO2 (stereo unspecified) [(?)-N-Ethyl-3,4-methylenedioxyamphetamine]	> 46
O=C(O)c1ccc(N[C@@H]2OC[C@@H](O)[C@@H](O)[C@@H]2O)cc1 [Benaxibine]	> 46
CC(O)C(=O)O (stereo unspecified) [Lactic acid]	> 46
CC(=O)SC1C\C2=C\C(=O)CCC2(C)C3CCC4(C)C(CCC45CCC(=O)O5)C13 (stereo unspecified) [Spironolactone]	> 46

Other lines, results leading:

IC50 of cell viability [µM]	SMILES
> 46	CCCCC(CC)COC(=O)c1ccccc1O (stereo unspecified) [Octisalate]
> 46	CC(C(=O)O)c1ccc2c(c1)[nH]c1ccc(Cl)cc12 (stereo unspecified) [CARPROFEN]
> 46	CC(C(O)c1ccc(O)cc1)N1CCC(Cc2ccccc2)CC1 (stereo unspecified) [IFENPRODIL]
> 46	CC1CCC2=C3N1\C=C(C(O)=O)/C(=O)C3=CC(=C2)F (stereo unspecified) [FLUMEQUINE]
> 46	O=C(N[C@H](CO)[C@H](O)c1ccc([N+](=O)[O-])cc1)C(Cl)Cl [Chloramphenicol]
> 46	CCCCN(CCCC)CC[C@H](O)c1cc2c(Cl)cc(Cl)cc2c2cc(C(F)(F)F)ccc12 [Halofantrine hydrochloride]
> 46	COc1cc(N[S+](=O)([O-])c2ccc(N)cc2)nc(C)n1 [SULFAMETOMIDINE]
> 46	Cn1nnnc1SCC1=C(C(=O)O)N2C(=O)[C@@H](NC(=O)[C@H](OC=O)c3ccccc3)[C@H]2SC1 [Cefamandole nafate]
> 46	CC1(Cn2ccnn2)[C@H](C(=O)O)N2C(=O)C[C@H]2[S+]1(=O)[O-] (stereo partly specified) [Tazobactam sodium]
> 46	CN1C(CSCC(F)(F)F)Nc2cc(Cl)c([S+](N)(=O)[O-])cc2[S+]1(=O)[O-] (stereo unspecified) [Polythiazide]
> 46	Cc1cccc(C)c1NC(=O)CC12CCCN1CCC2 [PILSICAINIDE HYDROCHLORIDE]
> 46	Cn1cnc([N+](=O)[O-])c1Sc1ncnc2nc[nH]c12 [Azathioprine]
> 46	CC(C)(CO)C(O)C(=O)NCCCC(=O)[O-] (stereo unspecified) [CALCIUM HOPANTENATE]
> 46	CC(=O)Nc1ccc(OC(=O)c2ccccc2O)cc1 [ACETAMINOSALOL]
> 46	CCCCc1oc2ccc(N[S+](C)(=O)[O-])cc2c1C(=O)c1ccc(OCCCN(CCCC)CCCC)cc1 [Dronedarone]
> 46	COc1cc(C=O)ccc1O [Vanillin]
> 46	CCCCCCCC/C=C\CCCCCCCC(=O)NCc1ccc(O)c(OC)c1 [Olvanil]
> 46	CC(=O)Oc1cc(C(C)C)c(OCCN(C)C)cc1C [Moxisylyte hydrochoride]

IC50 of cell viability [µM]	SMILES
> 46	Cc1cnc(NC(=O)C2C(=O)c3ccccc3[S+](=O)([O-])N2C)s1 (stereo unspecified) [Meloxicam]
> 46	Cc1ccc(S(=O)(=O)[O-])cc1C [Sodium xylenesulfonate]
> 46	CCOC(=O)c1cnc2cc(OCC(C)C)c(OCC(C)C)cc2c1O [BUQUINOLATE]
> 46	CC(C)(C)C(=O)OCOC(=O)[C@@H]1[N@]2[C@@H](SC1(C)C)[C@H](NC(=O)[C@@H](N)C3=CC=CC=C3)C2=O [Pivampicillin]
> 46	CCCCC/C=C/C/C=C/CCCCCCCC(=O)NC(C)c1ccccc1 (stereo unspecified) [MELINAMIDE]
> 46	CCCCN(CCCC)CC(O)c1cc(Cl)cc2c1-c1ccc(Cl)cc1/C2=C/c1ccc(Cl)cc1 (stereo unspecified) [LUMEFANTRINE]
> 46	C=CCN1C(=O)C(CC(C)C)NC1=S (stereo unspecified) [ALBUTOINUM]
> 46	C[C@](N)(Cc1ccc(O)cc1)C(=O)O [Metyrosine]
> 46	O=C(Nc1ccc(C(=O)O)c(O)c1)c1ccccc1 [CALCII BENZAMIDOSALICYLAS]
> 46	CCOC(=O)C\1=C(COCCN)\N\C(=C(/C1C2=CC=CC=C2Cl)C(=O)OC)C.O[S+]([O-])(=O)C3=CC=CC=C3 (stereo unspecified) [AMLODIPINE BESYLATE]
> 46	Clc1ccc([C@H](Cn2ccnc2)OCc2csc3c(Cl)cccc23)c(Cl)c1 [Sertaconazole nitrate]
> 46	CC(C)c1ccc2oc3nc(N)c(C(=O)O)cc3c(=O)c2c1 [AMLEXANOX]
> 46	CCCc1cc(C(N)=S)ccn1 [PROTHIONAMIDE]
> 46	CCOC(=O)Nc1ccc2c(c1)N(C(=O)CN(C)C)c1ccccc1CC2 [Tiracizine]
> 46	O=C(NOCC(O)CO)c1ccc(F)c(F)c1Nc1ccc(I)cc1F (stereo unspecified)
> 46	Nc1c(Br)cc(Br)cc1CNC1CCC(O)CC1 (stereo unspecified) [AMBROXOL HYDROCHLORIDE]
> 46	CCC(=O)O.CCC(=O)O.O=C(Nc1cccc(C2=NCCN2)c1)Nc1cccc(C2=NCCN2)c1 [Imidocarbe]

— the supplement of paper PMC3974653
